This is an account of results in ChEMBL document CHEMBL4433214, “Investigation around the Oxadiazole Core in the Discovery of a New Chemotype of Potent and Selective FXR Antagonists” (ACS Med Chem Lett, 2019).

Data set [1] addresses T1, Bile acid receptor (Homo sapiens) (UniProt Q96RI1).
T1 sequence (whole entry): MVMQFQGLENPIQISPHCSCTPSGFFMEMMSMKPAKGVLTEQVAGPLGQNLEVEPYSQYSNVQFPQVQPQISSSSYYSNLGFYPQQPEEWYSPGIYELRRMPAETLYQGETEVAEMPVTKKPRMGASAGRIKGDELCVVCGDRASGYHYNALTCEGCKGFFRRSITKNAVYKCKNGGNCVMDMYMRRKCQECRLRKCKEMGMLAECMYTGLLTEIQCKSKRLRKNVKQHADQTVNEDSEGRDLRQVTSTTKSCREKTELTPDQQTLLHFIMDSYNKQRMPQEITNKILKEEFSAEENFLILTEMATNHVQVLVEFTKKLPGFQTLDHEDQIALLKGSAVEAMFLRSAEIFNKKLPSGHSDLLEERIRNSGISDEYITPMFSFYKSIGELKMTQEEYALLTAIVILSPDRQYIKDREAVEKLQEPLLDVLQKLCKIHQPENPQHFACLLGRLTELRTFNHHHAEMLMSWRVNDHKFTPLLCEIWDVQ
The data set can be described thus: Antagonist activity at human FXR in HepG2 cells assessed as reversal of CDCA-induced reduction in CYP7A1 mRNA expression level at 0.1 to 1 uM dosed after 24 hrs starvation followed by CDCA addition and measured after 18 hrs by RT-PCR analysis. The class given is […].

Data set [2] addresses T1, Bile acid receptor (Homo sapiens). As to the kind of experiment: Antagonist activity at human FXR in HepG2 cells assessed as reversal of CDCA-induced increase in PEPCK mRNA expression level at 0.1 to 1 uM dosed after 24 hrs starvation followed by CDCA addition and measured after 18 hrs by RT-PCR analysis.
A short description of data set [3]: Lipophilicity, log D of the compound by LC-MS/MS analysis. The format is physicochemical. As to conditions: octanol/water.
The target in data set [4] is T1, Bile acid receptor (Homo sapiens). The data set can be described thus: Antagonist activity at human FXR transfected in HepG2 cells assessed as inhibition of CDCA-induced receptor transactivation at 10 uM by luciferase reporter assay relative to control. Further details: scale not given: the % may be the effect or the level left. The format is cell-based.
The nature of data set [5]: Intrinsic clearance in rat liver microsomes at 1 uM incubated for 2 hrs by LC-MS/MS analysis. The settings on record: read-out: CLH.
Data set [6] concerns the target T2, Nuclear receptor subfamily 1 group I member 2 (Homo sapiens, UniProt O75469).
T2 sequence (O75469 whole entry): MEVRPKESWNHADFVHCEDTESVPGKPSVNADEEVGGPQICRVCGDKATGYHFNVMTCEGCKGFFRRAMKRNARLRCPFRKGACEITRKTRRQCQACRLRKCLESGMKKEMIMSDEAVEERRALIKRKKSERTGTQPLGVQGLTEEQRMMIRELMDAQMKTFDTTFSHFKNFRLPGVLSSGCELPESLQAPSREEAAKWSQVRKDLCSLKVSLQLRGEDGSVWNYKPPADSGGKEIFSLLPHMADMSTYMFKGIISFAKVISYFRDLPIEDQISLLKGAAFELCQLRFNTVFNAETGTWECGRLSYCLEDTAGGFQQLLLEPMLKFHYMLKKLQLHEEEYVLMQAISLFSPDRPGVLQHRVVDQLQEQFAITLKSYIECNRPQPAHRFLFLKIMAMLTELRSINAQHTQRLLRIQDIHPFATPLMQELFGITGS
The data set can be described thus: Antagonist activity at human PXR transfected in HepG2 at 5 uM in presence of PXR agonist rifaximin by luciferase reporter assay. The class given is cell-based. As to conditions: hepg2, 5 µM.

Data set [7] deals with T1, Bile acid receptor (Homo sapiens). As to the kind of experiment: Antagonist activity at human FXR in HepG2 cells assessed as reversal of CDCA-induced increase in SHP mRNA expression level at 0.1 to 1 uM dosed after 24 hrs starvation followed by CDCA addition and measured after 18 hrs by RT-PCR analysis.
For data set [8] the target is unchanged. The data set can be described thus: Antagonist activity at human FXR in HepG2 cells assessed as reversal of CDCA-induced increase in […] mRNA expression level at 0.1 to 1 uM dosed after 24 hrs starvation followed by CDCA addition and measured after 18 hrs by RT-PCR analysis.
Data set [9] concerns the target T3, Oxysterols receptor LXR-alpha (Homo sapiens) (UniProt Q13133).
T3 sequence (whole entry): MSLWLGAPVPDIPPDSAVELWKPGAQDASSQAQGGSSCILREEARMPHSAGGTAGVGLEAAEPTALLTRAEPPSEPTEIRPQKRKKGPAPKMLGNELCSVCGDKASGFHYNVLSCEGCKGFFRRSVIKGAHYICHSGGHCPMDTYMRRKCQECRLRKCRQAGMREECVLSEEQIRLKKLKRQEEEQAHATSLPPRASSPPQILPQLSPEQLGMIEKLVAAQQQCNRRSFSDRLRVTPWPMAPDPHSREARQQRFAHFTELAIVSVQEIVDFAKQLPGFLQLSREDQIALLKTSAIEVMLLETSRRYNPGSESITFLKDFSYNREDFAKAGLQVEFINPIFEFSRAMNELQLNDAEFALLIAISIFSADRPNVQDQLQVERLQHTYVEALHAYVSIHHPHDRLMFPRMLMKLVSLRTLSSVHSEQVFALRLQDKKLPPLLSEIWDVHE
The data set can be described thus: Antagonist activity at human LXRalpha transfected in HepG2 at 5 uM in presence of LXRalpha agonist GW3965 by luciferase reporter assay. The class given is cell-based.

Data set [10] has as its target T3, Oxysterols receptor LXR-alpha (Homo sapiens). As to the kind of experiment: Agonist activity at human LXRalpha transfected in HepG2 at 10 uM by luciferase reporter assay. The class given is cell-based.
Data set [11] has as its target T1, Bile acid receptor (Homo sapiens). The data set can be described thus: Transactivation of human FXR transfected in HepG2 cells at 10 uM by luciferase reporter assay. The class given is cell-based.
The target in data set [12] is T4, Peroxisome proliferator-activated receptor gamma (Homo sapiens) (UniProt P37231).
T4 sequence (whole entry): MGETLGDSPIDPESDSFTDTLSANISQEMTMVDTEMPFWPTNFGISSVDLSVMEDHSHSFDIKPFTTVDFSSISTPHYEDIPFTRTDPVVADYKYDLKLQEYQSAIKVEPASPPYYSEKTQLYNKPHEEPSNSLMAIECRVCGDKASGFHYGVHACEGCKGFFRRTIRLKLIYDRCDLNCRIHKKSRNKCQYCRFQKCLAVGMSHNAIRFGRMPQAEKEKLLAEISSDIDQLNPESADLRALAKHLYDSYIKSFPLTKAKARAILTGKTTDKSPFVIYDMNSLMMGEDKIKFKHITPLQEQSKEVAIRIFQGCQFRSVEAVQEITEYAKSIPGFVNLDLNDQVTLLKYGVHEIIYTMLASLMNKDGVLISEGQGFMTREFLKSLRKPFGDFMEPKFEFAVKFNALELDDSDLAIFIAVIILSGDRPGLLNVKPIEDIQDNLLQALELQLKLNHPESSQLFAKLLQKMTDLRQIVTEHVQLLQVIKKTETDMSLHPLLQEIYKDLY
As to the kind of experiment: Agonist activity at human PPARgamma transfected in HepG2 at 10 uM by luciferase reporter assay. The class given is cell-based.

Calls of active or inactive are those of the source. No cut-off for these calls is given here.

On to `c1ccc2cc(-c3noc(C4CCNCC4)n3)ccc2c1`, for which the outcome in data set [1], in data set [2], in [7] and in data set [8] was Active. In data set [3], this compound had a pH-dependent lipophilicity (logD) of 0.34. For the same compound, the Activity in data set [4] was 80%; in data set [6], “Not Active”. Moreover, the microsomal CLint at 1 µM in [5] was 20.7 µL/min/mg. Moreover, the outcome in [9], in [10], in data set [11] and in data set [12] was inactive.
